From US12491198B2, “Doxycycline injection for sclerotherapy of lower eyelid festoons and malar edema” (LKF21, LLC, priority 2020, dated 2025)

Columns and labels:
[1] = test system: lower eyelid festoons and malar edema; format: in vivo, human
Experimental: An initial study of 15 consecutive patients with malar edema and/or festoons were injected with doxycycline hyclate at a concentration of 10 mg/mL. Pre- and post-injection photographs were reviewed and graded on a scale of 0 to 3 (0 no festoon, 1 small festoon, 2 medium festoon, 3 large festoon) by two blinded physician observers. […] Student t-test was used for statistical analysis.
Institutional Review Board (IRB) approval was obtained. A retrospective chart review was performed on 15 consecutive patients injected with doxycycline hyclate at a concentration of 10 mg/mL directly into their malar edema and festoons. The primary outcome measure was improvement in the appearance of lower eyelid festoons or malar edema. Pre- and post-injection photographs were reviewed and graded on a scale of 0 to 3 (0 no festoon, 1 small festoon, 2 medium festoon, 3 large festoon) by two blinded physician observers. All pre- and post-treatment photographs were taken in a standardized position without the use of a flash device. Written consent was obtained for the use of photographs and is on file with the authors. Additional data collected included patient age, volume of injection, location of injection, number of injections, and subjective complaints. […] Student t-test was used for statistical analysis.
Patients were offered injections in clinic or in the operating room with intravenous sedation, with or without concurrent eyelid surgery. For injections performed in the operating room, doxycycline hyclate was ordered from the hospital pharmacy at a concentration of 10 mg/mL. For injections performed in the office, doxycycline hyclate 100 mg sterile powder, lyophilized (Fresenius Kabi, Lake Zurich, Illinois, USA) was diluted to a concentration of 10 mg/mL with sterile 0.9% bacteriostatic sodium chloride solution. The solution was refrigerated at […], used within 48 hours of reconstitution, and protected from direct sunlight. Injections were performed using 1.0 mL syringes on a 30-gauge needle, directly into the festoon in multiple deep and intermediate planes beneath skin and muscle. Analysis of protected health information was compliant with the Health Insurance Portability and Accountability Act (HIPAA) and adherent to the Declaration of Helsinki.

[2] = test system: edema of festoons and malar mounds; assay: Studies of doxycycline as sclerosing agent at lower concentrations and compared with tetracycline; format: in vivo; conditions: versus tetracycline

bruising, average duration ([1]; human, in vivo): 10 days
patients reporting burning pain during the injection ([1]; human, in vivo): 100%
skin redness, average duration of symptoms ([1]; human, in vivo): 2 days
Structure (SMILES): C[C@H]1c2cccc(O)c2C(=O)C2=C(O)[C@]3(O)C(=O)C(C(N)=O)=C(O)[C@@H](N(C)C)[C@@H]3[C@@H](O)[C@@H]21 [doxycycline hyclate]
average (standard deviation) festoon grade after injection ([1]; post-injection, 10 mg/mL intralesional, scale 0 to 3, 20 treatment sides of 11 patients, mean follow up 22.5 weeks, p-value<0.001 vs initial): 0.9 (0.82)
average (standard deviation) initial festoon grade ([1]; pre-injection, scale 0 to 3 (0 no festoon, 3 large festoon), 20 treatment sides of 11 patients, two blinded physician observers): 2.5 (0.58)
risk of necrotizing dermalysis compared with tetracycline [2]: significantly lower risk
